{
  "source": "patent US11999782B2",
  "about": "“Therapeutic agents for the treatment of diseases associated with undesired cell proliferation” (Fundació Privada Institutció Catalana de Recerca I Estudis …, priority 2009, dated 2024)",
  "key": {"human LIF promoter": {"test_system": "human LIF promoter", "assay": "LIF promoter luciferase reporter assay", "assay_type": "cell-based", "conditions": "U373MG cells as printed; 100 pM TGFβ1, 20 hours", "procedure": "FIG. 4. TGFβ induces the transcription of LIF through an activated Smad complex. (A) Diagrams of the indicator constructs of luciferase LIF. (B) A172 glioma cells were transfected with indicator constructs of luciferase LIF (−634/+32), (−276/+32), (−276/+32) mutSBE or (−73/+32). 16 hours after transfection, the cells were treated with 100 pM TGFβ1 for 20 hours and were analyzed for luciferase activity. (C) U373MG cells were treated with 100 pM TGFβ1 for 3 hours, and ChIP assays were performed with the indicated antibodies and the PCR primers indicated. (D, E) The levels of LIF were determined by means of qRT-PCR analysis in U373MG (D) or GEM neurospheres (E) treated with 100 pM TGFβ1 for 3 hours after silencing mediated by siRNA of the indicated members of the indicated Smad family. Western blotting was performed using antibodies specific for Smads or qRT-PCR of Smad4. The β-actin was determined as an internal normalization control.\nGenomic DNA of U373MG was used to amplify the −634/+32 region of the human LIF promoter which was cloned into the pGL2-basic luciferase vector. The deletion constructs (−267/+32), and (−73/+32) were generated by means of digestion of the construct (−634/+32). Two point mutations were introduced in positions −183 bp and −184 bp in the construct (−267/+32) to interrupt the Smad binding element (SBE) and generate the construct (−267/+32) mutSBE. […]"}, "[1]": {"test_system": "LIF expression in normal human neuroprogenitors", "assay": "LIF mRNA in neurospheres of normal human neuroprogenitors", "assay_type": "cell-based", "conditions": "100 pM, 3 hours, compared with GBM neurospheres", "procedure": "FIG. 8. Effect of TGFβ on the capacity of self-renewal of normal human neuroprogenitors. (A) Immunocytochemistry of the indicated markers was performed in human neuroprogenitor neurospheres. (B) Neurospheres of the sample of GBM1 and of human neuroprogenitors were incubated with the indicated members of the 100 pM TGFβ family for 3 hours and the mRNA levels of LIF were determined. (C, D) Neurosphere cells of normal human neuroprogenitors were incubated in the same conditions that have been described above in FIG. 1D in the presence of 100 pM TGFβ1 or 20 ng/ml LIF for 7 days and the number of newly formed neurospheres (C) and the number total of cells (D) were determined.\nThe U373MG and A172 cells were a generous gift from J. Rich and D. Bigner and were cultured in DMEM with 10% fetal bovine serum (FBS). The primary culture of tumor cells (PCTC) and the GBM neurospheres were generated as described (Bruna et al., (2007) Cancer Cell 11, 147-160; Gunther et al., (2008) Oncogene. May 1; 27(20):2897-909). Briefly, the samples of tumors were processed in the 30 minutes after the surgical resection. The ground pieces of the samples of human gliomas were digested with 200 U/ml collagenase I (Sigma) and 500 U/ml of DNase I (Sigma) in PBS for 2 hours at 37° C. and with constant vigorous stirring. The suspension of individual cells was filtered through a 70 μm cell filter (BD Falcon) and washed with PBS. […]\nqRT-PCR was performed using Taqman probes from Applied Biosystems, according to the manufacturer's recommendations. The reactions were carried out in a ABI 7000 sequence detector (Perkin Elmer) and the results were expressed as the fold change calculated by means of the DDCt method relative to the control sample or the first quantified sample. […]\nIt was decided to assess whether this effect was specific to tumor cells or was also present in normal neuroprogenitor cells. […] First, it was determined if TGFβ induced LIF in normal human neuroprogenitors. […]"}},
  "data": [
    {"substance": "TGFβ: TGFβ1 (R&D Systems), used at 100 pM according to the figure legends", "values": [
      {"measurement": "transactivation of LIF promoter reporter constructs (−634/+32 and −276/+32)", "setting": "human LIF promoter", "value": "capable of transactivating"},
      {"measurement": "induction of LIF mRNA in normal human neuroprogenitor neurospheres", "setting": "[1]", "value": "did not induce LIF"}
    ]}
  ]
}
